Consider 18 compounds from patent publication US10781197B2, “Sulfonamide analogues of galiellalactone” (GLACTONE PHARMA DEVELOPMENT AB, priority 2016, dated 2020).

Structures are written as SMILES. Read-outs that look alike come from different tables or passages of the source.

One series deals with STAT3 signaling. Briefly: STAT3 Luciferase reporter gene assay. In kind it is cell-based. Conditions: for IC50: STAT3 reporter/HEK293 cell line, 1 h pretreatment, IL-6 induced for 16 h, luciferase activity. The procedure:
The ability to inhibit STAT3 signaling of the example compounds in comparison to galiellalactone was evaluated using a STAT3 Luciferase reporter gene assay.
Compounds were tested for dose response activity to determine IC50 at eight different doses (0.03, 0.1, 0.3, 1, 3, 10, 30 and 100 μM) in triplicate on the STAT3 reporter system.
Briefly, the STAT3 reporter/HEK293 cell line was plated in 96-well white plates for 16 h. Cells were pretreated with compounds for 1 h. Cells were then treated with IL-6 to induce STAT3 activation for 16 h. Luciferase activity was measured and analyzed.
A general note: In a reporter assay the amount or activity of a reporter protein is the signal.

Series [1] concerns IL-6 stimulated LNCaP prostate cancer cells. Briefly: Inhibition of IL-6 stimulated LNCaP cell proliferation, MTT assay. As to conditions: Homo sapiens, IL-6 stimulated LNCaP cells, read-out: GIC50. In kind it is cell-based. A general note: Formazan colour is commonly taken as a measure of viable cells.
The nature of series [2]: In vivo pharmacokinetics, plasma exposure after single oral dose. As to conditions: CD1 mice, single oral gavage 10 mg/kg. On the procedure:
Pharmacokinetic (PK) studies were performed in CD1 mice to establish plasma exposure following administration of single oral doses of galiellalactone (GL) and example 1. Sample analysis was by LC-MS/MS. Dose solutions were prepared at a drug concentration of 0.5 mg/mL in 5% DMSO in 50 mM citrate buffer (citric acid/sodium citrate pH 4.0) and administered as a 20 mL/kg oral gavage (10 mg/kg).

Series [3] is described as follows: Chemical stability in phosphate buffer solution (PBS). In kind it is physicochemical. As to conditions: 37° C., 1 μM test concentration. The procedure:
The chemical stability of example 20 and 28 in solution was determined in phosphate buffer solution (PBS) at 37° C. as outlined below.
A 4 μl volume of 100 μM stock solution of the study compound in 50% DMSO was added to 396 μl of PBS, to obtain 1 μM test concentration. The study compounds were incubated in PBS at 37° C. with 600 rpm shaking. The incubations were quenched (30, 60, and 120 min) using a two-fold volume of cold acetonitrile and analyzed. The samples (0, 30, 60, and 120 min) were analyzed using a Waters Acquity UPLC with Thermo Q-Exactive Focus Orbitrap and a Waters HSS T3 (2.1×50 mm, 1.7 μm particle size) column.

A further series has as its system IL-6/STAT3 signaling. Conditions: cited from earlier work.

As to `Cc1ccc(S(=O)(=O)N[C@@]2(C)C=C3C(=O)O[C@@H]4CC[C@H](C2)[C@]34O)cc1` [Example 1, N-[(4R,7R,9R,11S)-11-Hydroxy-9-methyl-2-oxo-3-oxatricyclo[5.3.1.0^4,11]undec-1(10)-en-9-yl]-4-methylbenzene-1-sulfonamide], in the series with STAT3 signaling (Homo sapiens, read-out: IC50), the IC50 is 1.1 µM. Besides, the IC50 in series [1] came to 1 µM. In series [2] (mouse), this compound yielded an area under the curve AUC(0-inf) of 157 ng·h/mL and an AUC(0-t) of 141 ng·h/mL. For the same compound, the half-life in series [2] (mouse, read-out: Apparent half-life (converted)) is 2 h. The peak concentration (Cmax) in series [2] (mouse, read-out: Cmax) turned out to be 129 ng/mL. The time to peak (Tmax) in series [2] (mouse, read-out: Tmax) worked out at 0.25 h.

With `Cc1ccc(S(=O)(=O)N[C@@]2(C)C=C3C(=O)O[C@@H]4CCC(C2)[C@]34O)cn1` (stereo partly drawn) [Example 13, N-[(4R,7R,9R,11S)-11-Hydroxy-9-methyl-2-oxo-3-oxatricyclo[5.3.1.0^4,^11]undec-1(10)-en-9-yl]-6-methylpyridine-3-sulfonamide], the IC50 with STAT3 signaling (Homo sapiens, read-out: IC50) amounted to 5.65 µM.

As to `Cc1ccc(S(=O)(=O)N[C@@]2(C)C=C3C(=O)O[C@@H]4CCC(C2)[C@]34O)s1` (stereo partly drawn) [Example 14, N-[(4R,7R,9R,11S)-11-Hydroxy-9-methyl-2-oxo-3-oxatricyclo[5.3.1.0^4,^11]undec-1(10)-en-9-yl]-5-methylthiophene-2-sulfonamide], the IC50 in the series on STAT3 signaling (Homo sapiens, read-out: IC50) is 6.78 µM.

With `C[C@]1(NS(=O)(=O)c2ccc(C(F)(F)F)cc2Cl)C=C2C(=O)O[C@@H]3CCC(C1)[C@]23O` (stereo partly drawn) [Example 15, 2-Chloro-N-[(4R,7R,9R,11S)-11-hydroxy-9-methyl-2-oxo-3-oxatricyclo[5.3.1.0^4,^11]undec-1(10)-en-9-yl]-4-(trifluoromethyl)benzene-1-sulfonamide], in the series on STAT3 signaling (Homo sapiens, read-out: IC50), the IC50 was determined as 2.9 µM.

Consider `Cc1ccc(S(=O)(=O)N[C@@]2(C)C=C3C(=O)O[C@@H]4CCC(C2)[C@]34O)cc1F` (stereo partly drawn) [Example 16, 3-Fluoro-N-[(4R,7R,9R,11S)-11-hydroxy-9-methyl-2-oxo-3-oxatricyclo[5.3.1.0^4,^11]undec-1(10)-en-9-yl]-4-methylbenzene-1-sulfonamide], for which the IC50 in the series on STAT3 signaling (Homo sapiens, read-out: IC50) amounted to 4.5 µM.

With `C[C@]1(NS(=O)(=O)c2ccc(F)cc2)C=C2C(=O)O[C@@H]3CCC(C1)[C@]23O` (stereo partly drawn) [Example 17, 4-Fluoro-N-[(4R,7R,9R,11S)-11-hydroxy-9-methyl-2-oxo-3-oxatricyclo[5.3.1.0^4,^11]undec-1(10)-en-9-yl]benzene-1-sulfonamide], the IC50 in the series with STAT3 signaling (Homo sapiens, read-out: IC50) was determined as 3.16 µM.

For `C[C@]1(NS(=O)(=O)c2ccc(Cl)cc2)C=C2C(=O)O[C@@H]3CCC(C1)[C@]23O` (stereo partly drawn) [Example 18, 4-Chloro-N-[(4R,7R,9R,11S)-11-hydroxy-9-methyl-2-oxo-3-oxatricyclo[5.3.1.0^4,^11]undec-1(10)-en-9-yl]benzene-1-sulfonamide], in the series with STAT3 signaling (Homo sapiens, read-out: IC50), the IC50 was determined as 2.26 µM.

On to `Cc1ccc(CS(=O)(=O)N[C@@]2(C)C=C3C(=O)O[C@@H]4CCC(C2)[C@]34O)cc1` (stereo partly drawn) [Example 19, N-[(4R,7R,9R,11S)-11-Hydroxy-9-methyl-2-oxo-3-oxatricyclo[5.3.1.0^4,^11]undec-1(10)-en-9-yl]-1-(4-methylphenyl)methanesulfonamide], for which the IC50 in the series on STAT3 signaling (Homo sapiens, read-out: IC50) was 9.69 µM.

On to `C[C@]1(NS(=O)(=O)c2ccc(C(F)(F)F)cn2)C=C2C(=O)O[C@@H]3CCC(C1)[C@]23O` (stereo partly drawn) [Example 20, N-[(4R,7R,9R,11S)-11-hydroxy-9-methyl-2-oxo-3-oxatricyclo[5.3.1.0^4,^11]undec-1(10)-en-9-yl]-5-(trifluoromethyl)pyridine-2-sulfonamide], for which the IC50 with STAT3 signaling (Homo sapiens, read-out: IC50) was found to be 1.25 µM. Besides, in series [3], the half-life at 1 μM worked out at 5.82 h.

In the case of `C[C@]1(NS(=O)(=O)c2ccc(N)cc2)C=C2C(=O)O[C@@H]3CC[C@H](C1)[C@]23O` [Example 21, 4-Amino-N-[(4R,7R,9R,11 S)-11-hydroxy-9-methyl-2-oxo-3-oxatricyclo[5.3.1.0^4,11]undec-1(10)-en-9-yl]benzene-1-sulfonamide], the IC50 in the series on STAT3 signaling (Homo sapiens, read-out: IC50) is 3.63 µM.

`C[C@]1(NS(=O)(=O)c2ccc(CO)cc2)C=C2C(=O)O[C@@H]3CC[C@H](C1)[C@]23O` [Example 22, N-[(4R,7R,9R,11S)-11-Hydroxy-9-methyl-2-oxo-3-oxatricyclo[5.3.1.0^4,11]undec-1(10)-en-9-yl]-4-(hydroxymethyl)benzene-1-sulfonamide]: in the series with STAT3 signaling (Homo sapiens, read-out: IC50), the IC50 was determined as 11.4 µM.

Regarding `Cc1ccc(S(=O)(=O)N(C)[C@@]2(C)C=C3C(=O)O[C@@H]4CC[C@H](C2)[C@]34O)cc1` [Example 23, N-[(4R,7R,9R,11 S)-11-Hydroxy-9-methyl-2-oxo-3-oxatricyclo[5.3.1.0^4,11]undec-1(10)-en-9-yl]-N,4-dimethylbenzene-1-sulfonamide], in the series with STAT3 signaling, the “activity in the STAT3 reporter assay (in words)” value (shortened to “activity”) was “significantly reduced or total loss of activity” and the IC50 entry is “inactive”. The “activity” value in the series with STAT3 signaling (listed as example 23) is given as “no or low activity”.

For the compound `CC(C)S(=O)(=O)N[C@@]1(C)C=C2C(=O)O[C@@H]3CC[C@H](C1)[C@]23O` [Example 24, N-[(4R,7R,9R,11 S)-11-Hydroxy-9-methyl-2-oxo-3-oxatricyclo[5.3.1.0^4,11]undec-1(10)-en-9-yl]propane-2-sulfonamide], the “activity” value is recorded as “significantly reduced or total loss of activity” with STAT3 signaling and “no or low activity” in the series on STAT3 signaling (listed as example 24). The IC50 with STAT3 signaling (Homo sapiens, read-out: IC50) was 97 µM.

Turning to `COc1ccc(CN2C(=O)C3=C[C@](C)(NS(=O)(=O)c4ccc(C)cc4)CC4CC[C@@H]2[C@@]34O)cc1` (stereo partly drawn) [Example 25, N-[(4R,7R,9R,11S)-11-hydroxy-3-[(4-methoxyphenyl)methyl]-9-methyl-2-oxo-3-azatricyclo[5.3.1.04,^11]undec-1(10)-en-9-yl]-4-methylbenzene-1-sulfonamide], the IC50 in the series with STAT3 signaling (Homo sapiens, read-out: IC50) turned out to be 3.7 µM.

Consider `COc1ccc(CN2C(=O)C3=C[C@](C)(NS(=O)(=O)c4ccc(C(F)(F)F)cn4)CC4CC[C@@H]2[C@@]34O)cc1` (stereo partly drawn) [Example 26, N-[(4R,7R,9R,11S)-11-Hydroxy-3-[(4-methoxyphenyl)methyl]-9-methyl-2-oxo-3-azatricyclo[5.3.1.04,^11]undec-1(10)-en-9-yl]-5-(trifluoromethyl)pyridine-2 sulfonamide], for which the IC50 in the series with STAT3 signaling (Homo sapiens, read-out: IC50) was determined as 8.64 µM.

For `C[C@]1(NS(=O)(=O)c2ccc(C(F)(F)F)cn2)C=C2C(=O)N(Cc3ccc(C#N)cc3)[C@@H]3CC[C@H](C1)[C@]23O` [Example 27, N-[(4R,7R,9R,11S)-3-[(4-Cyanophenyl)methyl]-11-hydroxy-9-methyl-2-oxo-3-azatricyclo[5.3.1.0^4,11]undec-1 (10)-en-9-yl]-5-(trifluoromethyl)pyridine-2-sulfonamide], the IC50 in the series on STAT3 signaling (Homo sapiens, read-out: IC50) was 8.61 µM.

As to `C[C@]1(NS(=O)(=O)c2ccc(C(F)(F)F)cn2)C=C2C(=O)O[C@]3(C)CC[C@H](C1)[C@]23O` [Example 28, N-[(4R,7R,9R,11S)-11-hydroxy-4,9-dimethyl-2-oxo-3-oxatricyclo[5.3.1.0^4,11]undec-1 (10)-en-9-yl]-5-(trifluoromethyl)pyridine-2-sulfonamide], in the series with STAT3 signaling (Homo sapiens, read-out: IC50), the IC50 turned out to be 0.92 µM. In series [3], the half-life at 1 μM was above 13.2 h.

`C[C@@H]1C=C2C(=O)O[C@@H]3CC[C@H](C1)[C@]23O` [Galiellalactone, (−)-Galiellalactone]: the IC50 was found to be 7.5 µM in the series with STAT3 signaling (Homo sapiens, read-out: IC50) and 2.8 µM in series [1]. In addition, in series [2], the highest concentration (Cmax) is given as 52 ng/mL. Also, the Tmax in series [2] is 0.5 h. In the series with IL-6/STAT3 signaling, the “inhibition of IL-6/STAT3 signaling” value is recorded as “submicromolar”.

By AUC(0-inf) is commonly meant total exposure, with the tail of the curve extrapolated. Usually AUC(0-t) stands for exposure summed from dosing to a finite time, without extrapolation to infinity. Low readings indicate less exposure, high ones more exposure. By half-life is commonly meant the time in which the quantity being followed falls by half. A word on the Cmax: it is the peak of the concentration-time curve. Usually Tmax stands for the time from dosing to the highest level.
